From US8247412B2, “Urea derivatives methods for their manufacture and uses thereof” (Galapagos Sasu, priority 2005, dated 2012) come the findings set out here.

Experiment [1] has as its system serum level of PTH (1-34+1-84). Nature of the experiment: PTH measurement on intact rats (serum PTH after oral administration). It counts as in vivo, rats (Sprague-Dawley). To be noted: intact male rats.
Experiment [2] has as its system serum level of PTH (1-34+1-84). Nature of the experiment: Rats with chronic renal failure (5/6 nephrectomy), serum PTH after oral administration. Type of experiment: in vivo, rats (Sprague-Dawley). As to the method:
II—Rats with Chronic Renal Failure • Chronic renal failure (CRF) was induced in male rats (220-250 g, Sprague-Dawley, CERJ) by ablation of ⅚ of the total renal mass. • After anaesthesia (Imalgene 1000), the rats were subjected to exeresis of the right kidney and ablation of both ends of the left kidney, representing approximately ⅔ of the organ). • The incision was cauterised by application of dry ice. […] The sera were frozen at −20° C. • After thawing, the serum level of PTH (1-34+1-84) was measured by a radioimmunology test (IRMA kit, rat, Immutopics).

Setting [3] is: Rattus norvegicus, 0.5 h, 10 mg/kg, 30 min, read-out: % PTH reduction at 30 min relative to the untreated group.

Structures can show the parent of a compound that is named as a salt.

Take `CS(=O)(=O)c1ccc(-c2csc(NC(=O)N(CCC(c3ccccc3)c3ccccc3)CCN3CCOCC3)n2)cc1` [40 a]: the “% PTH reduction at time t, relative to the untreated group” value in experiment [1] (10 mg/kg, at 2 h) was −71% at 2 h.
On the same count and under the same terms, the same measure for `COc1ccc(-c2csc(NC(=O)N(CCC(c3ccccc3)c3ccccc3)CCN3CCOCC3)n2)cc1` [51 a]: −78% at 2 h.
`O=C(Nc1nc(-c2ccc(F)cc2)cs1)N(CCC(c1ccccc1)c1ccccc1)CCN1CCOCC1` [54 a]: in experiment [1] (10 mg/kg, at 2 h), the “% PTH reduction at time t, relative to the untreated group” value is reported as −78% at 2 h.
On to `O=C(Nc1nc2ccc(Cl)cc2s1)N(CCC(c1ccccc1)c1ccccc1)CCN1CCOCC1` [Example 2, 3-(6-chloro-benzothiazol-2-yl)-1-(3,3-diphenyl-propyl)-1-(2-morpholin-4-yl-ethyl)-urea dihydrochloride], for which the “% PTH reduction at time t, relative to the untreated group” value in experiment [1] (30 mg/kg, at 30 mn) is −93% at 30 mn. The change in vivo at 10 mg/kg in experiment [2] (setting [3]) was -84%.
Regarding `O=C(Nc1nc2ccccc2s1)N(CCC(c1ccccc1)c1ccccc1)CCN1CCOCC1` [Example 8, 3-benzothiazol-2-yl-1-(3,3-diphenyl-propyl)-1-(2-morpholin-4-yl-ethyl)-urea dihydrochloride], the “% PTH reduction at 2 h relative to the untreated group” value in experiment [2] (10 mg/kg, 2 h) is reported as −90%. In addition, the change in vivo at 10 mg/kg in experiment [2] (setting [3]) is -80%.
For `O=C(Nc1nc(-c2ccc(Cl)cc2)cs1)N(CCC(c1ccccc1)c1ccccc1)CCN1CCOCC1` [Example 25, 3-[4-(4-chloro-phenyl)-thiazol-2-yl]-1-(3,3-diphenyl-propyl)-1-(2-morpholin-4-yl-ethyl)-urea dihydrochloride], the change in vivo at 10 mg/kg in experiment [2] (setting [3]) is -74%.
Same read-out and setting: for `Cc1ccc(-c2csc(NC(=O)N(CCC(c3ccccc3)c3ccccc3)CCN3CCOCC3)n2)cc1` [Example 28, 1-(3,3-diphenyl-propyl)-1-(2-morpholin-4-yl-ethyl)-3-(4-p-tolyl-thiazol-2-yl)-urea dihydrochloride] the value was -91%; for `CCOC(=O)c1cc(-c2csc(NC(=O)N(CCC(c3ccccc3)c3ccccc3)CCN3CCOCC3)n2)on1` [Example 31, 5-{2-[3-(3,3-diphenyl-propyl)-3-(2-morpholin-4-yl-ethyl)-ureido]-thiazol-4-yl}-isoxazole-3-carboxylic acid ethyl ester dihydrochloride], -85%; for `O=C(Nc1nc(-c2ccc(N3CCCC3)cc2)cs1)N(CCC(c1ccccc1)c1ccccc1)CCN1CCOCC1` [Example 36, 1-(3,3-diphenyl-propyl)-1-(2-morpholin-4-yl-ethyl)-3-[4-(4-pyrrolidin-1-yl-phenyl)-thiazol-2-yl]-urea trihydrochloride], -98%.
Same read-out and setting: the same measure for `N#Cc1ccc(-c2csc(NC(=O)N(CCC(c3ccccc3)c3ccccc3)CCN3CCOCC3)n2)cc1` [Example 44, 3-[4-(4-cyano-phenyl)-thiazol-2-yl]-1-(3,3-diphenyl-propyl)-1-(2-morpholin-4-yl-ethyl)-urea dihydrochloride]: -88%.
In the case of `O=C(Nc1nc(-c2cccnc2)cs1)N(CCC(c1ccccc1)c1ccccc1)CCN1CCOCC1` [Example 47, 1-(3,3-diphenyl-propyl)-1-(2-morpholin-4-yl-ethyl)-3-(4-pyridin-3-yl-thiazol-2-yl)-urea trihydrochloride], the change in vivo at 30 mg/kg in experiment [2] (Rattus norvegicus, 0.5 h, 30 mg/kg, 30 min, read-out: % PTH reduction at 30 min relative to the untreated group) was -96%.
`Cc1ccc(-c2csc(NC(=O)N(CCC(c3ccccc3)c3ccccc3)CCN3CCOCC3)n2)o1` [Example 60, 1-(3,3-diphenyl-propyl)-3-[4-(5-methyl-furan-2-yl)-thiazol)-2-yl]-1-(2-morpholin-4-yl-ethyl)-urea dihydrochloride]: the change in vivo at 10 mg/kg in experiment [2] (setting [3]) was -87%.
